Data taken from US20200289474A1, “METHODS OF TREATING PAIN WITH A THIAZOLINE ANTI-HYPERALGESIC” (priority 2019, published 2020).

Columns and labels:
[1] = rat 28-day GLP repeat dose PO study (toxicokinetics); assay type: in vivo
Procedure: A 28-day GLP repeat dose study with Compound 1 in rats was conducted with oral gavage doses of 0, 500, 1000 or 2000 mg/kg/day at a dosing volume of 10 mL/kg. The vehicle was 0.5% HPMC. There were 15 rats/sex in the control and high dose groups (5/sex for a 14-day recovery period) while the low and mid doses consisted of 10 rats/sex. Satellite groups of rats/sex/group for toxicokinetics were included.
Rats in Group 1 (Vehicle Control) were bled once at approximately 1 hour post-dose on those days.

[2] = beagle dog single dose study IV 10 mg/kg, oral 10 and 100 mg/kg; assay type: in vivo; conditions: fasted beagle dogs
Procedure: In another study Compound 1 was administered IV as a single dose to fasted beagle dogs at 10 mg/kg and orally at 10 and 100 mg/kg. Compound 1 was rapidly and well absorbed orally, within 1 hr, reaching peak plasma concentrations of 15 and 108 μg/mL at 10 and 100 mg/kg doses, respectively. The compound distributed readily in tissues with a moderate steady-state volume of distribution (0.3 L/kg).

[3] = stability in plasma from a variety of species; assay type: in vitro ADME
P-gp = molecular target: T1, P-gp (Homo sapiens, UniProt P08183); test: transporter inhibition, Caco-2 cells, digoxin transport; assay type: in vitro ADME
T1 construct: Caco-2 cells; endogenous in cells; host or cells: Caco-2 cells
T1 sequence (P08183 whole entry): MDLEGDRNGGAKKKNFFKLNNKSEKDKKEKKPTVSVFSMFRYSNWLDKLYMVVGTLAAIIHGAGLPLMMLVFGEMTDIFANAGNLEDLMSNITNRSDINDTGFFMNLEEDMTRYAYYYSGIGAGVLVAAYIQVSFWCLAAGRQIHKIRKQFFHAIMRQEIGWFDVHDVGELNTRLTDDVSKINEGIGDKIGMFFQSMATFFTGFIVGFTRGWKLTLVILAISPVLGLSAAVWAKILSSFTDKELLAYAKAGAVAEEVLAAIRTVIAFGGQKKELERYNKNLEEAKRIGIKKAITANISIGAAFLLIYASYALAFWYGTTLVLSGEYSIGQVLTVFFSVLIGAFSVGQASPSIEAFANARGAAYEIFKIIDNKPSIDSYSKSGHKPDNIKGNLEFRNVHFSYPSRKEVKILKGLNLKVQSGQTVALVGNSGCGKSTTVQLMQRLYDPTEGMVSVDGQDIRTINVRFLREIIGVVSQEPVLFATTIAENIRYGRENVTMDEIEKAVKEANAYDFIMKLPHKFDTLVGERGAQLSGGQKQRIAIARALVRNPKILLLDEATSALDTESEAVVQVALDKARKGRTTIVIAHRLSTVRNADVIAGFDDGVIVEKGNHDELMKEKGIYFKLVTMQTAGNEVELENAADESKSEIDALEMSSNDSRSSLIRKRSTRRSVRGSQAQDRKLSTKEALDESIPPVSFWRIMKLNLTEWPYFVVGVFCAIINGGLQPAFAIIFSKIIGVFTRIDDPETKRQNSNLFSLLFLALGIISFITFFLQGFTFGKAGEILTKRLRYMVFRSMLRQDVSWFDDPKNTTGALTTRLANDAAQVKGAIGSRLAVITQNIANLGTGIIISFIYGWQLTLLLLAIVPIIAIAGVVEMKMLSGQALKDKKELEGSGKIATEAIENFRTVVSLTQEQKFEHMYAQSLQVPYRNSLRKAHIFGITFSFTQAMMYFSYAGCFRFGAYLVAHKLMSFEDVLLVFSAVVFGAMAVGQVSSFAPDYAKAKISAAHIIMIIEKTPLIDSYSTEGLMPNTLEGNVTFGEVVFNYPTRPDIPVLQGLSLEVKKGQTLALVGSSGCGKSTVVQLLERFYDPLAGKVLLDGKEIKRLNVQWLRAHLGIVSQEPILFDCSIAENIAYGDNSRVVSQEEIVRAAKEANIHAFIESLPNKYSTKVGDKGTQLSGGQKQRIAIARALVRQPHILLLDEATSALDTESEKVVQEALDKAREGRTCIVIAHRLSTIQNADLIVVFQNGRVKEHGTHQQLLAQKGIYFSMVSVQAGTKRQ

Caco-2 cells = test: cytotoxicity by lactate dehydrogenase (LDH) release; assay type: cell-based
[4] = female, rat, in vivo, po, 500 mg/kg
[5] = rat 28-day PO, Day 1, F, 1000 mg/kg
[6] = rat 28-day PO, Day 1, F, 2000 mg/kg
[7] = rat 28-day PO, Day 1, M, 500 mg/kg
[8] = rat 28-day PO, Day 1, M, 1000 mg/kg
[9] = rat 28-day PO, Day 1, M, 2000 mg/kg
[10] = rat 28-day PO, Day 14, F, 500 mg/kg
[11] = rat 28-day PO, Day 14, F, 1000 mg/kg
[12] = rat 28-day PO, Day 14, F, 2000 mg/kg
[13] = rat 28-day PO, Day 14, M, 500 mg/kg
[14] = rat 28-day PO, Day 14, M, 1000 mg/kg
[15] = rat 28-day PO, Day 14, M, 2000 mg/kg
[16] = rat 28-day PO, Day 28, F, 500 mg/kg
[17] = rat 28-day PO, Day 28, F, 1000 mg/kg
[18] = rat 28-day PO, Day 28, F, 2000 mg/kg
[19] = rat 28-day PO, Day 28, M, 500 mg/kg
[20] = rat 28-day PO, Day 28, M, 1000 mg/kg
[21] = rat 28-day PO, Day 28, M, 2000 mg/kg

## CC1(C)SC(Nc2ccccc2O)=N[C@@H]1C(=O)O.Cl [Compound 1, (R)-2-(2-hydroxyphenylamino)-5,5-dimethyl-4,5-dihydrothiazole-4-carboxylic acid mono-hydrochloride]
[1]; both sexes, in vivo, po, rat 28-day pivotal study, at some doses
  Cmax at 28 days: > 100 µg/mL
[1]; both sexes, in vivo, po, rat 28-day study (summary)
  Tmax at 28 days: ≤ 1 h
[1]; both sexes, in vivo, rat 28-day PO, read-out: overall mean CL/F (converted)
  CL/F at 28 days: 35.2 mL/min/kg
[1]; both sexes, in vivo, rat 28-day PO, read-out: overall mean t1/2 (converted)
  half-life at 28 days: 4.24 h
[1]; both sexes, rat, in vivo, po
  half-life: 3 to 8 h
[1]; both, rat, in vivo, po, 28 days
  overall mean V/F: 12.5 L/kg
[1]; [4]
  AUC: 298 µg·h/mL
  AUC(0-inf): 299 µg·h/mL
  CL/F: 27.8 mL/min/kg
  Cmax: 74.8 µg/mL
  Vd/F: 8.1 L/kg
  half-life: 3.36 h
  tmax: 2 h
[1]; female, rat, in vivo, po, 2000 mg/kg
  half-life: 8.05 h
[1]; male, rat, in vivo, po, 1000 mg/kg
  CL/F: 38.7 mL/min/kg
[1]; male, rat, in vivo, po, 2000 mg/kg
  CL/F: 35.3 mL/min/kg
[1]; [5]
  AUCINF: 794 µg·h/mL
  AUCTAU: 788 µg·h/mL
  CL/F (CLz/F): 21 mL/min/kg
  Cmax: 108 µg/mL
  t1/2: 3.39 h
[1]; [6]
  AUCINF: 1324 µg·h/mL
  AUCTAU: 1161 µg·h/mL
  CL/F (CLz/F): 25.2 mL/min/kg
  Cmax: 118 µg/mL
[1]; [7]
  AUCINF: 275 µg·h/mL
  AUCTAU: 270 µg·h/mL
  CL/F (CLz/F): 30.3 mL/min/kg
  Cmax: 55.1 µg/mL
  t1/2: 4.18 h
[1]; [8]
  AUCINF: 460 µg·h/mL
  AUCTAU: 456 µg·h/mL
  CL/F (CLz/F): 36.2 mL/min/kg
  Cmax: 52.7 µg/mL
  t1/2: 3.46 h
[1]; [9]
  AUCINF: 771 µg·h/mL
  AUCTAU: 768 µg·h/mL
  CL/F (CLz/F): 43.2 mL/min/kg
  Cmax: 83.1 µg/mL
  t1/2: 2.81 h
[1]; [10]
  AUCINF: 225 µg·h/mL
  AUCTAU: 223 µg·h/mL
  CL/F (CLss/F): 37.5 mL/min/kg
  Cmax: 75.0 µg/mL
  t1/2: 4.20 h
[1]; [11]
  AUCINF: 437 µg·h/mL
  AUCTAU: 430 µg·h/mL
  CL/F (CLss/F): 38.7 mL/min/kg
  Cmax: 96.3 µg/mL
  t1/2: 4.19 h
[1]; [12]
  AUCINF: 952 µg·h/mL
  AUCTAU: 942 µg·h/mL
  CL/F (CLss/F): 35.3 mL/min/kg
  Cmax: 127 µg/mL
  t1/2: 3.56 h
[1]; [13]
  AUCINF: 258 µg·h/mL
  AUCTAU: 244 µg·h/mL
  CL/F (CLss/F): 34.2 mL/min/kg
  Cmax: 45.8 µg/mL
  t1/2: 6.27 h
[1]; [14]
  AUCINF: 296 µg·h/mL
  AUCTAU: 293 µg·h/mL
  Cmax: 51.9 µg/mL
  t1/2: 3.68 h
[1]; [15]
  AUCINF: 709 µg·h/mL
  AUCTAU: 701 µg·h/mL
  Cmax: 75.6 µg/mL
  t1/2: 3.66 h
[1]; [16]
  AUCINF: 303 µg·h/mL
  AUCTAU: 297 µg·h/mL
  CL/F (CLss/F): 28 mL/min/kg
  Cmax: 86.4 µg/mL
  t1/2: 4.62 h
  tmax: 0.5 h
[1]; [17]
  AUCINF: 741 µg·h/mL
  AUCTAU: 736 µg·h/mL
  CL/F (CLss/F): 22.7 mL/min/kg
  Cmax: 128 µg/mL
  t1/2: 3.20 h
[1]; [18]
  AUCINF: 1327 µg·h/mL
  AUCTAU: 1305 µg·h/mL
  CL/F (CLss/F): 25.5 mL/min/kg
  Cmax: 139 µg/mL
  t1/2: 3.93 h
  tmax: 0.5 h
[1]; [19]
  AUCINF: 333 µg·h/mL
  AUCTAU: 305 µg·h/mL
  CL/F (CLss/F): 27.3 mL/min/kg
  Cmax: 48.6 µg/mL
  t1/2: 6.90 h
[1]; [20]
  AUCINF: 337 µg·h/mL
  AUCTAU: 334 µg·h/mL
  CL/F (CLss/F): 49.8 mL/min/kg
  Cmax: 47.9 µg/mL
  t1/2: 3.31 h
[1]; [21]
  AUCINF: 731 µg·h/mL
  AUCTAU: 724 µg·h/mL
  CL/F (CLss/F): 46 mL/min/kg
  Cmax: 83.6 µg/mL
  t1/2: 3.53 h
[2]
  mean terminal half-life: 3.9 h
  steady-state volume of distribution: 0.3 L/kg
[2]; both 10 and 100 mg/kg
  oral bioavailability: 75%
[2]; oral 10 mg/kg
  peak plasma concentration: 15 µg/mL
[2]; oral 100 mg/kg
  peak plasma concentration: 108 µg/mL
[2]; oral 10 and 100 mg/kg
  time to peak plasma concentration: ≤ 1 h
[3]
  stability in plasma: stable
P-gp
  inhibition: does not inhibit
Caco-2 cells
  cytotoxicity (LDH release): less than 25%
